Laboratory results published in ChEMBL document CHEMBL1201862, “PubChem BioAssay data set” (2004).
Calls of active or inactive are those of the source.

Tests used:
[1] = Luminescence Cell-Based Dose Retest to Confirm Inhibitors of Cancer Stem Cells. [Related pubchem assays (depositor defined):AID2717, AID2721]; type: functional; details: Homo sapiens
[2] = viability loss of HMLE_sh_eGFP cells – cell-based, luminescence, counter-screen for HMLE_sh_ECad selective toxicity project, dose response (AID 463074); type: functional, Homo sapiens;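 further: HMLE human mammary epithelial cells expressing control shRNA against eGFP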
[3] = luciferase reporter signal suppression in cells – H4 neuroglioma cells, luminescence, dose response (AID 1990); type: functional, cell-based
[4] = decrease of insulin promoter-GFP reporter – imaging, high-content screening, mouse beta cells (AID 1628); type: functional; details: MIN6
BJ [5] = test: BJ-TERT fibroblast viability loss – cell-based, RAS-independent, luminescence, dose response (AID 1933); type: functional; details: Homo sapiens
[6] = Luminescence Cell-Based Dose Response HTS to Identify Inhibitors of 5'UTR Stem-Loop Driven Prion Protein mRNA Translation in H4 Neuroglioblastoma Cells. [Related pubchem assays: 1827 (Project Summary), 1813 (Primary HTS)]; type: functional
[7] = MIN6 cell viability loss – mouse insulinoma, cytotoxicity control, dose response (AID 2122); type: functional;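 further: confirmatory high-throughput counterscreen run to flag cytotoxic compounds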
[8] = alpha-synuclein stem-loop luciferase translation blockers – H4 neuroglioma cells, luminescence, confirmation (AID 1988); type: functional, cell-based
BJ [9] = test: cells; type: functional, cell-based; details: Homo sapiens
BJ [10] = test: BJ-TERT-LT-ST fibroblast viability loss – cell-based, RAS-independent, luminescence, dose response (AID 1935); type: functional; details: Homo sapiens;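 further: BJ fibroblasts immortalized with TERT plus LT and ST oncogenes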
[11] = DRD fibroblast viability loss – cell-based, non-viral oncogenic, luminescence, dose response (AID 1934); type: functional; details: Homo sapiens
[12] = THP-1 cell cytotoxicity, dose response, cytotoxicity control for non-replicating M. tuberculosis project (AID 489025); type: functional
[13] = HepG2 cell cytotoxicity, dose response, cytotoxicity control for non-replicating M. tuberculosis project (AID 489018); type: functional; details: Mycobacterium tuberculosis
[14] = Vero E6 cell cytotoxicity, dose response, cytotoxicity control for non-replicating M. tuberculosis project, secondary assay (AID 492998); type: functional, VeroE6; details: Vero C1008
[15] = HEK-293T viability loss after treatment – luminescence, T-cell screen hits, cytotoxicity control for TCR NF-kB inhibitor project, dose response (AID 489026); type: functional, cell-based;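 further: cells exposed to compound about 14 hours before the viability readout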
cells = type: functional
Hexokinase-1 = biological target: T1, Hexokinase-1 (Homo sapiens, UniProt P19367); test: hexokinase 1 activity inhibitors, potency – biochemical, set 2, resazurin fluorescence coupled readout, selectivity assay for HKDC1 inhibitor project, SAR follow-up (AID 588356); type: functional
T1 sequence (P19367 whole entry): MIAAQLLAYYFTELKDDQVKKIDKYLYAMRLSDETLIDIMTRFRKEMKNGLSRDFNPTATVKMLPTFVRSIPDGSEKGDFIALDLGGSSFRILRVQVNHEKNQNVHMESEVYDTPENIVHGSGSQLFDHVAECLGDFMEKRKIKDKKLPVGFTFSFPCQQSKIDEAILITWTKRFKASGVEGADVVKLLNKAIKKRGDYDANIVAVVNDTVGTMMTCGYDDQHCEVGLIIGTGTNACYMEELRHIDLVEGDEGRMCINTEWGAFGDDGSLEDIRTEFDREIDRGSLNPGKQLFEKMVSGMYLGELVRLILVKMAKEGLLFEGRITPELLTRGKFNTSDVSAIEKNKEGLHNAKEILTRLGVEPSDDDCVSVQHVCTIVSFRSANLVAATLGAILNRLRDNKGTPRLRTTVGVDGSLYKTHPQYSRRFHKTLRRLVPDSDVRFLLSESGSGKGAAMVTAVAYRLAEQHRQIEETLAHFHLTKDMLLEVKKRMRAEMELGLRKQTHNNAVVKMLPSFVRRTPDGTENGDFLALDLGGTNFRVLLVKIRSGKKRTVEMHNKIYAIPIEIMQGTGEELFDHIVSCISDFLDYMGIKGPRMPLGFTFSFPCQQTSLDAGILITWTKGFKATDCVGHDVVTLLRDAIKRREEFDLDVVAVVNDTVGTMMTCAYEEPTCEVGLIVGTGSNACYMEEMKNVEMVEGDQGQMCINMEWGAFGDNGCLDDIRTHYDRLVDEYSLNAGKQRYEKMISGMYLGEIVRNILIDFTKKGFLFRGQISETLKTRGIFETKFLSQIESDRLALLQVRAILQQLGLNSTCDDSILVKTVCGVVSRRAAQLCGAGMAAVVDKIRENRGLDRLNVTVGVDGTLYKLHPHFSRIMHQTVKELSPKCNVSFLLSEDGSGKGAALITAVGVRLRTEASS

Hexokinase HKDC1 = biological target: T2, Hexokinase HKDC1 (Homo sapiens, UniProt Q2TB90); test: analog inhibition of human HKDC1 activity – biochemical, set 2, SAR follow-up (AID 588355); type: functional
T2 sequence (Q2TB90 whole entry): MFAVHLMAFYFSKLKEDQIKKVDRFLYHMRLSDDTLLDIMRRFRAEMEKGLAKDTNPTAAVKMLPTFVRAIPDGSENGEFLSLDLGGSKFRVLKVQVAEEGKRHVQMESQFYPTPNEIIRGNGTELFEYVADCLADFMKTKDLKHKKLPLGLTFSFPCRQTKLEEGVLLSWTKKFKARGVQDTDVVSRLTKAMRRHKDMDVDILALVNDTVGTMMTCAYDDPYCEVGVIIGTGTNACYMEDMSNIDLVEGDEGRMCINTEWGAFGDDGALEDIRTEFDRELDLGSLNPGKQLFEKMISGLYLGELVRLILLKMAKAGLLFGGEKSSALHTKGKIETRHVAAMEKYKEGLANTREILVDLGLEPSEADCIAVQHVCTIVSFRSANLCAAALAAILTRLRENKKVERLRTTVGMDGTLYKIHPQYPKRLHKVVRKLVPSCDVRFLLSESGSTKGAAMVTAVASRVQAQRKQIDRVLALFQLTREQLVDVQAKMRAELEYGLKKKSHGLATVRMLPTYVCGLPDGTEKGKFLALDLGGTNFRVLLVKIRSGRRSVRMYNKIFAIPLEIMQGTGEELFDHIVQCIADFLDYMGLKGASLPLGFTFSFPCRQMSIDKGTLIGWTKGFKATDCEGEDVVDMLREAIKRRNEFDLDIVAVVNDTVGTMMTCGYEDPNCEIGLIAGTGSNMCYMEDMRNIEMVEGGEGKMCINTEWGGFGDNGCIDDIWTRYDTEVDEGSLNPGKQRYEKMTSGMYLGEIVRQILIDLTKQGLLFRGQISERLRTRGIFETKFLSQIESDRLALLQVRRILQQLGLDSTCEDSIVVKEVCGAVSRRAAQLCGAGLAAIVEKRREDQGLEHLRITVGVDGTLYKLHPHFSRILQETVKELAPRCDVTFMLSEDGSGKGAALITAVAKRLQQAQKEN

[16] = biological target: T3, Replicative DNA helicase DnaB (Mycobacterium tuberculosis, UniProt P9WMR3); test: DnaB intein splicing inhibitors, dose response, biochemical, cell-free fluorescence (AID 449749); type: functional
T3 sequence (P9WMR3 whole entry): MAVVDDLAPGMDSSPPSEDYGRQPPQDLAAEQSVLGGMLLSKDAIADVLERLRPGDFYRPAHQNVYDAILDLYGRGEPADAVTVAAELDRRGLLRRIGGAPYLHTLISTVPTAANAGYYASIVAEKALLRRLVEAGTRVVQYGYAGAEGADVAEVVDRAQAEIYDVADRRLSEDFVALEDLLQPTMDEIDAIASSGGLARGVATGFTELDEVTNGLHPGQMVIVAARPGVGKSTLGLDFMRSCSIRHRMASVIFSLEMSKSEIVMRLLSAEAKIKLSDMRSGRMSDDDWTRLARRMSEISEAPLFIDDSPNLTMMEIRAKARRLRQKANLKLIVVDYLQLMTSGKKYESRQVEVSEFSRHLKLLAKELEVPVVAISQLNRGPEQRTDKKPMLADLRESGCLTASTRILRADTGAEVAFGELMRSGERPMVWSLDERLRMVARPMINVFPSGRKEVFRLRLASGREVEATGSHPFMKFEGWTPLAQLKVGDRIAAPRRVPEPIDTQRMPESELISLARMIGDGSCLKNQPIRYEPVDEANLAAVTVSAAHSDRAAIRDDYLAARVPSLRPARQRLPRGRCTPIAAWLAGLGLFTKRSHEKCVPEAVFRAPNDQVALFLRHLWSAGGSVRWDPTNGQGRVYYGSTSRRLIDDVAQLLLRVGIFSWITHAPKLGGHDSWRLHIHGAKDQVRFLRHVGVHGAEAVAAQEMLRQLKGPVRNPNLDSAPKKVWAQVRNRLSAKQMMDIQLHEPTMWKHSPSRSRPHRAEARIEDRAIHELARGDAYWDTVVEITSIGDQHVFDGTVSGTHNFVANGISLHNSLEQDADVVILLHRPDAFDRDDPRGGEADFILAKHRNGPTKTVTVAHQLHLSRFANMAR

Protein RecA = biological target: T4, Protein RecA (Mycobacterium tuberculosis, UniProt P9WHJ3); test: Fluorescence Cell-Free Homogeneous Dose Retest to Identify Inhibitors of RecA-Intein Splicing Activity. [Related pubchem assays (depositor defined):AID2097, AID2223, AID489010, AID492950]; type: functional
T4 sequence (P9WHJ3 whole entry): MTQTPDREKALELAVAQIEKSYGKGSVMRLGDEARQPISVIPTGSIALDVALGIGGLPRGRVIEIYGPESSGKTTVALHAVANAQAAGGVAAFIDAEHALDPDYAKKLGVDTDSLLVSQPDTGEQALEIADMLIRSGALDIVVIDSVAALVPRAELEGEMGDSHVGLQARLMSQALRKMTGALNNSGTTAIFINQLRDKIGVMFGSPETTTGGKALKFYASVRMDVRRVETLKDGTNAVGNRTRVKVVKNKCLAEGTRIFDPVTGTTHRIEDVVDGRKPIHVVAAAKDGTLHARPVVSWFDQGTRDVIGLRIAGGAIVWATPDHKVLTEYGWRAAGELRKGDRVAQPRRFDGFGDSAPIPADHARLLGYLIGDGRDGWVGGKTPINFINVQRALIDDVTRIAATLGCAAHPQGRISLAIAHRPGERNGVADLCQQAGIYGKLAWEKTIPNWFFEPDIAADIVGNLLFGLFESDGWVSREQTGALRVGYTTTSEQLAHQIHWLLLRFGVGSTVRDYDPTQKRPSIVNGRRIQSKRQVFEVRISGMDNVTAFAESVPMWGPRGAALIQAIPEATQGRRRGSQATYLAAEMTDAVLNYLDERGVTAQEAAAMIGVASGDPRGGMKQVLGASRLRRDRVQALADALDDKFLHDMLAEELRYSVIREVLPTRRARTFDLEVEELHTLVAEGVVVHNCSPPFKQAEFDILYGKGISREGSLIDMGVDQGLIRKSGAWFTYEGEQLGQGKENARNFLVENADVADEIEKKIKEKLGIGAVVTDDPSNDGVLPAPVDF

Cytochrome P450 2D6 = Cytochrome P450 2D6 (Homo sapiens, UniProt P10635);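 further: CYP2D6 member of a cytochrome P450 panel assay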
Chain of Cytochrome P450 2D6 (P10635 whole entry): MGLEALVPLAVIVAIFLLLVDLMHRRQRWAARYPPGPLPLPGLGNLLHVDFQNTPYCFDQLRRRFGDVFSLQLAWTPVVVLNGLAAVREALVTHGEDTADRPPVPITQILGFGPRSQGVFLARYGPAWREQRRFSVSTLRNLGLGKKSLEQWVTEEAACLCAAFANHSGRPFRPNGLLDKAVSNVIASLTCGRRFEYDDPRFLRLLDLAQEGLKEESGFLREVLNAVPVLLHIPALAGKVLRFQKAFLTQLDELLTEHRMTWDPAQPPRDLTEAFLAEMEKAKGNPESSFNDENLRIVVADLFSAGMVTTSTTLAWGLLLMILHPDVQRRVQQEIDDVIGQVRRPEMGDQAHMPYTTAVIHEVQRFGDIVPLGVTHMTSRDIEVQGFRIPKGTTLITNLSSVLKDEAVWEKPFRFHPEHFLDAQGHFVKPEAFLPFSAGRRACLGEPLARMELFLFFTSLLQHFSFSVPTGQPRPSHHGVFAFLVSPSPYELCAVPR

O=C(NC(=S)Nc1ccc2oc(=O)ccc2c1)c1ccc(-c2cccc(Cl)c2Cl)o1
active: AC50 [1] 2770 nM | AC50 [2] 39200 nM

COc1ccc(Nc2cc(C)nc(-n3nc(C)cc3C)n2)cc1
inconclusive: EC50 (BJ [10]) 388 nM
inactive: IC50 [15] > 80000 nM
active: EC50 [3] 266 nM | IC50 [4] 2540 nM | EC50 (BJ [5]) 625 nM | EC50 [6] 142 nM | IC50 [7] < 250 nM | EC50 [8] < 195 nM | EC50 (BJ [9]) 973 nM | EC50 [11] 400 nM | CC50 [12] 201 nM | CC50 [13] > 20000 nM | CC50 [14] 1410 nM | IC50 (cells) 380 nM

COc1cc2c(cc1OC)-c1cc(NCc3ccccc3F)nc(=O)n1CC2
inactive: IC50 (Hexokinase-1) > 80000 nM | IC50 (Hexokinase HKDC1) > 80000 nM

CCO/C(O)=C1/C(C)=NC2(O)c3ccccc3C(=O)C12O (stereo unspecified)
active: AC50 [16] 24000 nM | EC50 (Protein RecA) 18100 nM
inconclusive: AC50 (Cytochrome P450 2D6)
